Results taken from PubChem BioAssay (NCI).
Values joined by “and” are separate entries in the source; they are usually repeats but may differ in a detail not shown here. Equal values may be shown once.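 Five compound concentrations were applied to cells in 96-well plates for 48 hours; endpoints were derived by simple linear interpolation of the resulting dose-response curve. At the GI50, growth is halved. TGI is the concentration that stops growth completely.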

What was measured:
Assay in all cases: NCI anticancer screen, dose series, 48 h
[1] = test system: SK-MEL-5 melanoma
[2] = test system: A498 renal
[3] = test system: EKVX NSCLC
[4] = test system: MDA-MB-435
[5] = test system: OVCAR-4 ovarian
[6] = test system: NCI-H23 lung
[7] = test system: 786-0 renal
[8] = test system: HCC-2998 colon

SMILES	TGI [1]	TGI [2]	TGI [3]	TGI [4] [µM]	TGI [5] [µM]	TGI [6] [µM]	TGI [7]	TGI [8]	GI50 [1]	GI50 [2]	GI50 [3]	GI50 [4] [µM]	GI50 [5]	GI50 [6]	GI50 [8]	GI50 [7]
CN(C)CCNCCN	> 100 µM	> 100 µM	> 100 µM	> 100	> 100	> 100	> 100 µM									
CC1CC(O)C(=O)C(O[C@@H]2C[C@@H]3CC[C@@H]4[C@H](CC[C@]5(C)C(C6=CC(=O)OC6)CC[C@]45O)[C@@]3(C=O)C[C@H]2O)O1 (stereo partly drawn)	0.0174 µM	0.232 µM	0.0542 µM	0.177		0.0565	0.0341 µM	0.243 µM								
C=CC(=O)N1CN(C(=O)C=C)CN(C(=O)C=C)C1	24.7 µM	32.4 µM	26.2 µM	10.7	21.2	9.15	24.7 µM	25.3 µM	9.61 µM	15.3 µM	9.02 µM	2.96	5.06 µM	2.77 µM	10.2 µM	7.15 µM
COC(=O)C1=COC(C)C2CN3CCc4c([nH]c5ccccc45)C3CC12 (stereo not drawn)	66.4 µM and > 100 µM	49.7 µM and > 100 µM	80.9 µM and > 100 µM	> 100	> 100	> 100	40.2 µM and > 100 µM	44.7 µM and > 100 µM	22.6 µM and > 100 µM	21.1 µM and 74.9 µM	17.8 µM and > 100 µM		25.4 µM and > 100 µM	33.8 µM and > 100 µM	20.6 µM and > 100 µM	18.8 µM and 54.8 µM
Cc1ccc(OCCOCCOCCOCCOc2ccc(C)n(O)c2=S)c(=S)n1O	11.3 µM	10.9 µM	> 100 µM	> 100	55	> 100	> 100 µM	> 100 µM	0.0438 µM	0.323 µM	0.0213 µM	0.366	< 0.0105 µM	0.0166 µM	0.25 µM	0.335 µM
Cn1cc(-c2csc(-c3cn(CCCCN4CCCCC4)c4ccccc34)n2)c2cccnc21		3 µM	3.03 µM	2.36	4.04	3.21	3.05 µM	3.41 µM		1.61 µM	1.58 µM	1.13	1.96 µM	1.66 µM	1.85 µM	1.64 µM
CC(C)c1[nH]nc2c1N=C(c1ccccc1Cl)c1cc([N+](=O)[O-])ccc1N2	16.2 µM	9.37 µM		> 25	> 24.2	> 25	> 24 µM	> 19.1 µM	5.33 µM	4.53 µM		0.87	8.06 µM	7.24 µM	6.91 µM	5.74 µM
O=C(Nc1cc(Cl)ccc1O)c1ccc(Nc2ccnc(C(F)(F)F)c2)cc1	4.95 µM	7.17 µM	9.63 µM	9.53	> 100	7.81	> 100 µM	> 100 µM	2.19 µM	2.39 µM	2.84 µM	2.95	3.56 µM	2.46 µM	3.73 µM	3.61 µM
O=C(Nc1cc(Nc2ncccc2-c2ncnc3nc[nH]c23)ccc1F)c1cc(C(F)(F)F)cc(C(F)(F)F)c1	2.76 µM	3.92 µM	> 10 µM	> 10	4.34	> 10	9.52 µM	2.74 µM	1.12 µM	0.648 µM	4.1 µM	0.996	1.57 µM	1.45 µM	1.24 µM	3.55 µM
CCC/C=C/C=C/C1CC(O)C(O)C(=O)C1CO (stereo not drawn)	> 100 µM		> 100 µM	> 100	> 100	> 100	> 100 µM	> 100 µM								
Cn1c(=O)c2c(nc(C(=N)SCC(=O)O)n2C)n(C)c1=O	37.6 µM	66.7 µM	> 100 µM	> 100	85.6	> 100	> 100 µM									
Cc1cc(N/N=C/c2ccccn2)nc2ccccc12	6.24 µM	7.05 µM		15.9	7.2	22.2	12.4 µM	16.1 µM	0.302 µM	0.633 µM		0.679	0.166 µM	0.831 µM	0.462 µM	0.384 µM
O=C1Nc2ccccc2/C1=C1\CCc2cc(O)ccc21	> 25 µM	17.8 µM	> 25 µM	> 25	> 25	> 25	> 25 µM	> 25 µM	6.62 µM	5.65 µM	4.17 µM	2.24	7.02 µM	7.07 µM	9.41 µM	19.2 µM
COc1cc2c(/C=N\N=C(N)N)c[nH]c2cc1C	30.9 µM	73.9 µM	88.5 µM	33.2		53.5	46.8 µM	29.2 µM	17.2 µM	27.3 µM	28.3 µM	17		18.7 µM	15.8 µM	19.4 µM
ClCCN(CCCl)c1ccc(CNc2ccccc2)cc1	34.4 µM	24.3 µM		> 100	> 100	> 100	36 µM		11.3 µM	6.32 µM		12	16.2 µM	9.59 µM		5.11 µM
COc1ccc(/C(C)=C(\c2ccc(OCCN3CCCCCC3)cc2)c2ccc(OC(=O)C3CCCCC3)cc2)cc1	3 µM	3.45 µM	5.48 µM	3.38	3.35	4.32	3.06 µM	3.36 µM	1.08 µM	1.35 µM	1.39 µM	1.57	0.785 µM	1.29 µM	1.24 µM	1.11 µM
COc1ccc(-c2nccn2-c2ccc(OC)cc2)cc1	30.4 µM	55.9 µM	> 100 µM	35.1	> 100	58.9	60.6 µM	33.7 µM	14.2 µM	14.4 µM	41.5 µM	7.53	30.2 µM	22.2 µM	16.4 µM	21.9 µM
